How the values were obtained:
CCRF-CEM cells = assay: Resazurin cytotoxicity assay, drug-sensitive CCRF-CEM leukemia cells; type: cell-based, human; details: cell growth, 72 h incubation, IC50 ± SD, n = 3
Protocol: Drug-sensitive CCRF-CEM and multidrug-resistant (MDR) P-glycoprotein (P-gp)-over-expressing CEM/ADR5000 leukemic cells were kindly provided by Prof. Axel Sauerbrey (Department of Pediatrics, University of Jena, Germany). Cells were cultured in RPMA1640 medium including 10% fetal bovine serum (FBS) and 1% penicillin (1000 U/mL)/streptomycin (100 µg/mL) (Life Technologies, Darmstadt, Germany). Doxorubicin (5000 ng/mL) was added to maintain overexpression of P-gp (MDR1 and ABCB1) in CEM/ADR5000 cells. Doxorubicin was obtained from the University Pharmacy of the University Medical Center Mainz. CEM/ADR5000 cells display a more than 1000-fold resistance to doxorubicin [27] and are therefore a suitable model to identify novel drugs without or very low cross-resistance.
The cytotoxic effects of the compounds solved in DMSO (Sigma-Aldrich, Taufkirchen, Germany) were tested by the resazurin assay. This assay is based on reduction of the indicator dye, resazurin, to the highly fluorescent resorufin by viable cells. Cells lethally damaged by cytotoxic compounds rapidly lose the enzymatic capability to reduce non-fluorescent resazurin to the highly fluorescent resorufin. As the reductive potential happens in a dose-dependent manner, this chemical reaction can be exploited to quantitatively determine the cytotoxic potential of investigational compounds and to measure dose-response relationships. With increasing concentrations of a cytotoxic drug, the fluorescence signal fades out. Aliquots of 10,000 cells/100 µL cells were seeded into 96-well plates (Thermo-Scientific, Dreieich, Germany) and immediately treated with various concentrations of each compound. After 72 h incubation at 37 °C, 20 µL resazurin 0.01% w/v solution (Invitrogen, Dreieich, Germany) were added to each well, and the plates were maintained at 37 °C for 4 h. Fluorescence was measuring by an Infinite M2000 Proplate reader (Tecan, Crailsheim, Germany) with an excitation wavelength of 544 nm and an emission wavelength of 590 nm. Each experiment was done at least three times with six replicates each. The viability was analyzed in comparison with untreated cells. […] It is a well-established measure to determine the cytotoxic potential of anticancer drugs. The IC50 values were calculated from a calibration curve by linear regression using Microsoft Excel.

[1] = target: T1, bovine pancreatic α-chymotrypsin (Bos taurus, UniProt P00766); assay: Bovine pancreatic α-chymotrypsin inhibition screening; type: biochemical; details: over 10 min
T1 construct: from tissue; host or cells: bovine pancreas (from the enzyme's name only)
Protocol: 20S proteasome, isolated and purified from human erythrocytes, was obtained from a commercial source (Biomol GmbH, Hamburg, Germany), as well as the peptidic substrates (Bachem, Bubendorf, Switzerland) Suc-Leu-Leu-Val-Tyr-AMC, Boc-Leu-Arg-Arg-AMC and Cbz-Leu-Leu-Glu-AMC for ChT-L, T-L and PGPH (C-L) activity of the enzyme, respectively. The three distinct proteolytic activities of the 20S proteasome were measured by monitoring the hydrolysis of the substrates and detecting the fluorescence of the common product released, i.e., 7-amino-4-methyl coumarin (7-AMC), by means of an Infinite 200 PRO microplate reader (Tecan, Männedorf, Switzerland) at 30 °C with a 380-nm excitation filter and a 460-nm emission filter. All gold and silver complexes were tested against the three proteolytic activities of the 20S proteasome and against Cat-B, Cat-L and bovine pancreatic α-chymotrypsin at 10 µM concentrations over a period of 10 min using an equivalent amount of DMSO as a negative control. […]. The IC50 values were calculated with the program GraFit® using the two-parameter equation. More detailed experimental protocols for the assays against each proteolytic activity of the 20S proteasome, as well as against bovine pancreatic α-chymotrypsin, are already reported elsewhere (see also Supplementary Materials). Cat-B and Cat-L were purchased from Calbiochem, Darmstadt, Germany, and the related assays were performed as previously described. The employed fluorogenic substrate for both cysteine proteases was Cbz-Phe-Arg-AMC (80 µM for Cat-B; 5 µM for Cat-L).
Assay for Bovine Pancreatic α-Chymotrypsin Inhibition
The enzyme ([…]) was incubated at 20 °C with the test compound present at 10
µM (screening assay). The reaction buffer consisted of 50 mM Tris buffer pH 8.0
containing 100 mM NaCl, 5 mM EDTA and 7.5% DMSO. Product release from substrate
hydrolysis ([…] final concentration, Suc-Leu-Leu-Val-Tyr-AMC from Bachem) was
determined over a period of 10 min. […]

[2] = target: T2, trypsin-like (T-L) activity of human 20S proteasome (Homo sapiens, UniProt Q99436); assay: Inhibition of trypsin-like activity of 20S proteasome (Boc-Leu-Arg-Arg-AMC); type: biochemical; details: for IC50: 10 min, no pre-incubation, 30 °C; for T-L inhibition at 10 µM: over 10 min
T2 construct: 20S proteasome, isolated and purified from human erythrocytes; purchased Biomol GmbH, Hamburg, Germany; host or cells: human erythrocytes (native complex)
Protocol: 20S proteasome, isolated and purified from human erythrocytes, was obtained from a commercial source (Biomol GmbH, Hamburg, Germany), as well as the peptidic substrates (Bachem, Bubendorf, Switzerland) Suc-Leu-Leu-Val-Tyr-AMC, Boc-Leu-Arg-Arg-AMC and Cbz-Leu-Leu-Glu-AMC for ChT-L, T-L and PGPH (C-L) activity of the enzyme, respectively. The three distinct proteolytic activities of the 20S proteasome were measured by monitoring the hydrolysis of the substrates and detecting the fluorescence of the common product released, i.e., 7-amino-4-methyl coumarin (7-AMC), by means of an Infinite 200 PRO microplate reader (Tecan, Männedorf, Switzerland) at 30 °C with a 380-nm excitation filter and a 460-nm emission filter. All gold and silver complexes were tested against the three proteolytic activities of the 20S proteasome and against Cat-B, Cat-L and bovine pancreatic α-chymotrypsin at 10 µM concentrations over a period of 10 min using an equivalent amount of DMSO as a negative control. […] The IC50 values were calculated with the program GraFit® using the two-parameter equation. More detailed experimental protocols for the assays against each proteolytic activity of the 20S proteasome, as well as against bovine pancreatic α-chymotrypsin, are already reported elsewhere (see also Supplementary Materials). Cat-B and Cat-L were purchased from Calbiochem, Darmstadt, Germany, and the related assays were performed as previously described. The employed fluorogenic substrate for both cysteine proteases was Cbz-Phe-Arg-AMC (80 µM for Cat-B; 5 µM for Cat-L). […]
Inhibition assay for the Tryptic Activity of the 20S Proteasome
mg∙mL−1 with the test compound present at 10 µM (screening assay) or at variable
concentrations (continuous assay). The reaction buffer consisted of 50 mM Tris buffer pH
substrate hydrolysis ([…]) was monitored continuously over a period of 10 min. […]

| Compound | IC50 (CCRF-CEM cells) | Bovine Pancreatic α-Chymotrypsin Inhibition (%) at 10 µM [1] | IC50 [2] | T-L inhibition at 10 µM [2] |
| --- | --- | --- | --- | --- |
| CC[PH](CC)(CC)[Ag][Br] [Ag(PEt3)Br] | 1500 ± 100 nM | n.i. | 2650 ± 150 nM |  |
| CC[PH](CC)(CC)[Ag][Cl] [Ag(PEt3)Cl] | 1360 ± 250 nM | n.i. | 2200 ± 1300 nM |  |
| CC[PH](CC)(CC)[Ag][I] [Ag(PEt3)I] | 1280 ± 120 nM | n.i. | 2270 ± 780 nM |  |
| CCP(CC)CC.[Br][Au] [Au(PEt3)Br] | 280 ± 60 nM | n.i. | 1260 ± 120 nM |  |
| CCP(CC)CC.[Au+].[Cl-] [Au(PEt3)Cl] | 350 ± 30 nM | n.i. | 1250 ± 50 nM |  |
| CC[P](CC)(CC)[Au][I] [Au(PEt3)I] | 320 ± 70 nM | n.i. | 5800 ± 300 nM |  |
| CCP(CC)CC.CCP(CC)CC.O=[N+]([O-])[O-].[Ag+] [[Ag(PEt3)2]NO3] |  | n.i. |  | n.i. |
| CC(=O)OC[C@H]1O[C@@H]([S-])[C@H](OC(C)=O)[C@@H](OC(C)=O)[C@@H]1OC(C)=O.CCP(CC)CC.[Au+] [auranofin, Auranofin] | 220 ± 80 nM | n.i. ^a |  | n.i. |
